Values joined by “and” are separate entries in the source; they are usually repeats but may differ in a detail not shown here. Equal values may be shown once. Inconclusive results and toxic doses are left out. Peptide text beside a SMILES is read from it. * marks the point of attachment. Boc = CC(C)(C)OC(=O)*
Test system: BDF1 mice, B16 melanoma ip, median survival T/C
Assay: NCI In Vivo Anticancer Drug Screen. Data for tumor model B16 Melanoma (intraperitoneal) in B6D2F1 (BDF1) mice
Settings: endpoint: median survival time, higher = longer survival
Outline: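 Read-out: survival or tumor size, given as treated/control ratio. Controls received vehicle only; animals bore transplantable tumors.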

[1] = dose: 6.25 mg/kg/injection, schedule: Q01DX009 (ip), vehicle: saline
[2] = dose: 12.5 mg/kg/injection, schedule: Q01DX009 (ip), vehicle: saline
[3] = dose: 25.0 mg/kg/injection, schedule: Q01DX009 (ip), vehicle: saline
[4] = dose: 12.5 mg/kg/injection, schedule: Q01DX009 (ip), vehicle: Klucel (hydroxypropylcellulose) (HPC)
[5] = dose: 25.0 mg/kg/injection, schedule: Q01DX009 (ip), vehicle: Klucel (hydroxypropylcellulose) (HPC)
[6] = dose: 50.0 mg/kg/injection, schedule: Q01DX009 (ip), vehicle: Klucel (hydroxypropylcellulose) (HPC)
[7] = dose: 100.0 mg/kg/injection, schedule: Q01DX009 (ip), vehicle: Klucel (hydroxypropylcellulose) (HPC)
[8] = dose: 200.0 mg/kg/injection, schedule: Q01DX009 (ip), vehicle: Klucel (hydroxypropylcellulose) (HPC)
[9] = dose: 100.0 mg/kg/injection, schedule: Q01DX009 (ip), vehicle: saline with Tween-80
[10] = dose: 100.0 mg/kg/injection, schedule: Q04DX003 (ip), vehicle: saline with Tween-80
[11] = dose: 200.0 mg/kg/injection, schedule: Q01DX009 (ip), vehicle: saline with Tween-80
[12] = dose: 200.0 mg/kg/injection, schedule: Q04DX003 (ip), vehicle: saline with Tween-80
[13] = dose: 400.0 mg/kg/injection, schedule: Q01DX009 (ip), vehicle: saline with Tween-80
[14] = dose: 400.0 mg/kg/injection, schedule: Q04DX003 (ip), vehicle: saline with Tween-80
[15] = dose: 50.0 mg/kg/injection, schedule: Q01DX009 (ip), vehicle: saline
[16] = dose: 100.0 mg/kg/injection, schedule: Q01DX009 (ip), vehicle: saline
[17] = dose: 12.5 mg/kg/injection, schedule: Q01DX009 (ip), vehicle: saline with Tween-80
[18] = dose: 25.0 mg/kg/injection, schedule: Q01DX009 (ip), vehicle: saline with Tween-80
[19] = dose: 50.0 mg/kg/injection, schedule: Q01DX009 (ip), vehicle: saline with Tween-80

Compound: CCCC[S+](CCCC)CC(=O)c1ccc(-c2ccccc2)cc1
- T/C (dose: 1.56 mg/kg/injection, schedule: Q01DX009 (ip), vehicle: saline): 110 % of control
- T/C (dose: 3.13 mg/kg/injection, schedule: Q01DX009 (ip), vehicle: saline): 96 % of control
- T/C [1]: 95 % of control
- T/C [2]: 94 % of control
- T/C [3]: 105 % of control

Compound: CS(=O)(=O)OCCCOS(C)(=O)=O
- T/C [4]: 91 % of control

Compound: C=C1C(C)C2C(Cc3ccccc3)NC(=O)C23OC(=O)/C=C\CC(=O)CCC(C)C/C=C/C3C1O (centres undefined)
- T/C (dose: 2.5 mg/kg/injection, schedule: Q01DX009 (ip), vehicle: Klucel (hydroxypropylcellulose) (HPC)): 94 % of control

Compound: CNC(=O)NCc1ccc(C(=O)NC(C)C)cc1
- T/C [5]: 111 % of control
- T/C [6]: 98 % of control
- T/C [7]: 99 % of control
- T/C [8]: 101 % of control
- T/C (dose: 400.0 mg/kg/injection, schedule: Q01DX009 (ip), vehicle: Klucel (hydroxypropylcellulose) (HPC)): 101 % of control

Compound: O=C(/C=C\c1ccccc1)/C=C/c1ccccc1
- T/C [9]: 104 % of control
- T/C [10]: 102 % of control
- T/C [11]: 96 % of control
- T/C [12]: 100 % of control
- T/C [13]: 92 % of control
- T/C [14]: 102 % of control

Compound: N/C=N/O
- T/C [3]: 104 % of control
- T/C [15]: 111 % of control
- T/C [16]: 109 % of control
- T/C (dose: 200.0 mg/kg/injection, schedule: Q01DX009 (ip), vehicle: saline): 117 % of control

Compound: Nc1nc(SCc2ccccc2)c2ncn(C3CC(O)C(CO)O3)c2n1 (centres undefined)
- T/C (dose: 4.25 mg/kg/injection, schedule: Q01DX009 (ip), vehicle: saline): 111 % of control
- T/C (dose: 8.5 mg/kg/injection, schedule: Q01DX009 (ip), vehicle: saline): 113 % of control
- T/C (dose: 17.0 mg/kg/injection, schedule: Q01DX009 (ip), vehicle: saline): 94 % of control
- T/C (dose: 34.0 mg/kg/injection, schedule: Q01DX009 (ip), vehicle: saline): 93 % of control

Compound: CCO/C=C1\SC(=S)N(c2ccccc2OC)C1=O
- T/C [4]: 109 % of control
- T/C [5]: 99 % of control and 117 % of control
- T/C [6]: 107 % of control and 111 % of control
- T/C [7]: 86 % of control and 107 % of control
- T/C [8]: 111 % of control

Compound: NC(Cc1ccc(O)cc1)C(=O)N/N=C/c1ccc(N(CCCl)CCCl)cc1 (centres undefined)
- T/C (dose: 15.0 mg/kg/injection, schedule: Q01DX009 (ip), vehicle: Klucel (hydroxypropylcellulose) (HPC)): 115 % of control
- T/C (dose: 30.0 mg/kg/injection, schedule: Q01DX009 (ip), vehicle: Klucel (hydroxypropylcellulose) (HPC)): 120 % of control

Compound: Nc1nc(N)nc(-c2ccc([N+](=O)[O-])o2)n1
- T/C [9]: 103 % of control
- T/C [11]: 97 % of control
- T/C [13]: 90 % of control

Compound: Cc1cc2c(cc1C)NC(C)CC(=O)N2 (centres undefined)
- T/C [6]: 106 % of control
- T/C [7]: 108 % of control
- T/C [8]: 106 % of control

Compound: OC(Cc1nc2ccccc2s1)(C(F)(F)F)C(F)(F)F
- T/C [9]: 111 % of control
- T/C [10]: 89 % of control
- T/C [13]: 108 % of control
- T/C [14]: 102 % of control

Compound: c1cncc(C2OCCO2)c1
- T/C [9]: 98 % of control
- T/C [11]: 89 % of control
- T/C [13]: 89 % of control

Compound: CCC[CH2][Sn-]([CH2]CCC)([CH2]CCC)[O]c1cc(Cl)c(Cl)cc1Cl
- T/C (dose: 0.25 mg/kg/injection, schedule: Q01DX009 (ip), vehicle: Klucel (hydroxypropylcellulose) (HPC)): 95 % of control
- T/C (dose: 0.5 mg/kg/injection, schedule: Q01DX009 (ip), vehicle: Klucel (hydroxypropylcellulose) (HPC)): 94 % of control
- T/C (dose: 1.0 mg/kg/injection, schedule: Q01DX009 (ip), vehicle: Klucel (hydroxypropylcellulose) (HPC)): 96 % of control

Compound: C=CCNCC(O)c1ccccc1 (centres undefined)
- T/C [5]: 103 % of control
- T/C [6]: 106 % of control
- T/C [7]: 109 % of control

Compound: CS(=O)(=O)Nc1ccc(Nc2c3ccccc3nc3cc([N+](=O)[O-])ccc23)cc1
- T/C (dose: 0.6 mg/kg/injection, schedule: Q01DX009 (ip), vehicle: saline sonified): 112 % of control
- T/C (dose: 2.5 mg/kg/injection, schedule: Q01DX009 (ip), vehicle: saline sonified): 154 % of control
- T/C (dose: 50.0 mg/kg/injection, schedule: Q01DX001 (ip), vehicle: saline sonified): 158 % of control

Compound: CC(C)(C)OC(=O)NCC(=O)NCC(=O)O (Boc-Gly-Gly-OH)
- T/C [15]: 94 % of control
- T/C [16]: 96 % of control

Compound: CC(=O)NC(CCC(=O)C=[N+]=N)C(=O)O (centres undefined)
- T/C (dose: 0.01 mg/kg/injection, schedule: Q01DX009 (ip), vehicle: water): 113 % of control
- T/C (dose: 0.05 mg/kg/injection, schedule: Q01DX009 (ip), vehicle: water): 102 % of control
- T/C (dose: 0.1 mg/kg/injection, schedule: Q01DX009 (ip), vehicle: other): 106 % of control
- T/C (dose: 0.1 mg/kg/injection, schedule: Q01DX009 (ip), vehicle: water): 86 % of control
- T/C (dose: 0.2 mg/kg/injection, schedule: Q01DX009 (ip), vehicle: other): 90 % of control
- T/C (dose: 10.0 mg/kg/injection, schedule: Q04DX003 (ip), vehicle: other): 109 % of control
- T/C (dose: 15.0 mg/kg/injection, schedule: Q04DX003 (ip), vehicle: water): 123 % of control
- T/C (dose: 20.0 mg/kg/injection, schedule: Q04DX003 (ip), vehicle: other): 100 % of control
- T/C (dose: 30.0 mg/kg/injection, schedule: Q04DX003 (ip), vehicle: water): 121 % of control
- T/C (dose: 40.0 mg/kg/injection, schedule: Q04DX003 (ip), vehicle: other): 106 % of control
- T/C (dose: 60.0 mg/kg/injection, schedule: Q04DX003 (ip), vehicle: water): 118 % of control

Compound: CC1(O)CC2CCC1C2 (centres undefined)
- T/C [10]: 102 % of control
- T/C [12]: 102 % of control
- T/C [14]: 100 % of control

Compound: Cc1ccc(CNc2ccc(Cl)cc2)cc1
- T/C [6]: 91 % of control
- T/C [7]: 94 % of control

Compound: CN(C)CCCCNc1ccc(NCCCCN(C)C)c2c1C(=O)c1c(O)ccc(O)c1C2=O
- T/C [1]: 95 % of control
- T/C [2]: 93 % of control
- T/C [3]: 90 % of control and 110 % of control

Compound: CC1=CC(O)C(O)C2(C)C1CC(=O)C13COC4OC(CC1C4=O)C(O)C32 (centres undefined)
- T/C (dose: 0.4 mg/kg/injection, schedule: Q01DX009 (ip), vehicle: saline with Tween-80): 106 % of control
- T/C (dose: 0.8 mg/kg/injection, schedule: Q01DX009 (ip), vehicle: saline with Tween-80): 110 % of control
- T/C (dose: 1.6 mg/kg/injection, schedule: Q01DX009 (ip), vehicle: saline with Tween-80): 113 % of control
- T/C (dose: 3.2 mg/kg/injection, schedule: Q01DX009 (ip), vehicle: saline with Tween-80): 110 % of control
- T/C (dose: 5.0 mg/kg/injection, schedule: Q01DX009 (ip), vehicle: saline with Tween-80): 90 % of control
- T/C (dose: 10.0 mg/kg/injection, schedule: Q01DX009 (ip), vehicle: saline with Tween-80): 91 % of control

Compound: CC12CCC(C1)C(C)(C)C2NCCCN1C(=O)c2ccc3c4c(ccc(c24)C1=O)C(=O)N(CCCNC1C2(C)CCC(C2)C1(C)C)C3=O (centres undefined)
- T/C (dose: 6.25 mg/kg/injection, schedule: Q01DX009 (ip), vehicle: Klucel (hydroxypropylcellulose) (HPC)): 100 % of control
- T/C [4]: 96 % of control
- T/C [5]: 106 % of control and 109 % of control

Compound: Cc1ccc(NC(=O)COc2ccc(Cl)cc2Cl)c([N+](=O)[O-])c1
- T/C (dose: 25.0 mg/kg/injection, schedule: Q01DX009 (ip), vehicle: carboxymethylcellulose (CMC)): 100 % of control
- T/C (dose: 50.0 mg/kg/injection, schedule: Q01DX009 (ip), vehicle: carboxymethylcellulose (CMC)): 100 % of control
- T/C [7]: 88 % of control
- T/C (dose: 100.0 mg/kg/injection, schedule: Q01DX009 (ip), vehicle: carboxymethylcellulose (CMC)): 100 % of control

Compound: CCOC(=N)c1cn(C2OC(CO)C(O)C2O)c2ncnc(N)c12 (centres undefined)
- T/C (dose: 0.25 mg/kg/injection, schedule: Q01DX009 (ip), vehicle: saline): 100 % of control
- T/C (dose: 0.5 mg/kg/injection, schedule: Q01DX009 (ip), vehicle: saline): 105 % of control

Compound: Cc1ccc(CNc2ccc(Br)cc2)cc1
- T/C [7]: 94 % of control
- T/C [8]: 91 % of control

Compound: Nc1ccc(-c2c(N)ncc3ccccc23)cc1
- T/C [17]: 101 % of control
- T/C [18]: 104 % of control
- T/C [19]: 103 % of control

Compound: CCC/C(C)=C(/C#N)CC
- T/C [5]: 105 % of control
- T/C [6]: 103 % of control
- T/C [7]: 109 % of control

Compound: O=C(Nc1nncs1)c1cccs1
- T/C [17]: 101 % of control
- T/C [18]: 109 % of control
- T/C [19]: 121 % of control
- T/C [9]: 109 % of control
- T/C [11]: 106 % of control

Reference: PubChem BioAssay AID192 (DTP/NCI, 2004)
